In US10414721B1, “Inhibitor of endocannabinoid cellular reuptake” (University of Bern, priority 2018, dated 2019):
Like-named read-outs stand apart in the source and are kept apart here.

Assay: Oral bioavailability and tissue distribution
Format: in vivo, mouse
Conditions: for Cmax: read-out: apparent Cmax in plasma; for concentration at 20 min: oral, read-out: plasma level
Method: Male C57BL6/J or male BALB/c mice were orally administered by gavage with 10, 25, 50 or 100 mg/kg of WOBE437 (100 μL; olive oil and ethanol 8:2) using a metal feeding needle (20G, Kent Scientific, USA). The mice were sacrificed by decapitation after gavage administration. Brain, blood, liver, kidney and spleen were collected for the LC-MS/MS analyses. All tissues were briefly washed with ice cold PBS and immediately snap-frozen and stored at −80° C. Whole brain samples were dissected between the hemispheres. Blood samples were immediately centrifuged to obtain plasma, which was stored at −80° C.
Samples extractions and LC-MS/MS measurements were performed as previously described (Chicca et al., 2017). Briefly, tissues were weighted and transferred in to extraction tubes containing three steel beads and 0.1 M formic acid. Tissues were homogenized and rapidly transferred to glass tubes containing 1.5 mL of ethyl acetate:hexane (9:1) 0.1% formic acid and internal standards (ISs). Samples were centrifuged and the organic phase was recovered. After evaporation, the extracts were reconstituted in 200 μL of ACN:ddH2O (8:2). 10 μL of the solution were injected in the LC-MS/MS system using the same LC and ionization protocols as described (Chicca et al., 2017).

CCCCCCC/C=C/C=C/C(=O)NCCc1ccc(OC)c(OC)c1 [WOBE437, (2E,4E)-N-[2-(3,4-Dimethoxyphenyl)ethyl]dodeca-2,4-dienamide]
brain level (10 mg/kg p.o., 20 min, C57BL6/J): 24.7 ± 25.3 pmol/g
apparent volume of distribution (Vd) at Cmax (50 mg/kg p.o.): 80.4 L/kg
apparent volume of distribution (Vd) at the steady state (50 mg/kg p.o.): 609 L/kg
brain concentration 3 h after administration (50 mg/kg p.o.): 18 pmol/g
drop of hepatic concentration between 20 and 40 min (50 mg/kg p.o.): 4 factor
estimated concentration in brain (50 mg/kg p.o.): 399.7 ± 154.7 nM
time until cleared from the brain (50 mg/kg p.o.): approximately 180 min
brain levels after p.o. as compared to i.p. (times lower) (50 mg/kg p.o. vs 10 mg/kg i.p.): approximately 10 times
highest concentration in kidney (50 mg/kg p.o., 20 min): 2277 ± 916 pmol/g
highest concentration in liver (50 mg/kg p.o., 20 min): 4720 ± 3273 pmol/g
highest concentration in spleen (50 mg/kg p.o., 20 min): 1030 ± 339 pmol/g
brain level (50 mg/kg p.o., 20 min, C57BL6/J): 534.5 ± 109.9 pmol/g
hepatic concentration (50 mg/kg p.o., 40 min): 1080 pmol/g
Cmax (50 mg/kg p.o.): ~2 µM
Tmax (male, C57BL6/J, mouse, brain, plasma, po, 50 mg/kg, 50 mg/kg p.o., read-out: tmax in brain and plasma): ≤ 20 min
Tmax (male, C57BL6/J, mouse, kidney, liver, spleen, po, 50 mg/kg, 50 mg/kg p.o., read-out: tmax in kidney, liver and spleen (converted)): 20 min
Cmax (male, C57BL6/J, mouse, plasma, po, 50 mg/kg, 50 mg/kg p.o.): 1.93 ± 0.564 µM
concentration at 20 min (male, mouse, plasma, 10 mg/kg p.o., 20 min, C57BL6/J): 0.0473 ± 0.0325 µM
concentration at 20 min (male, mouse, plasma, 50 mg/kg p.o., 20 min, C57BL6/J): 1.73 ± 0.703 µM
